Assay results reported in ChEMBL document CHEMBL5726119, “Macrocyclic compounds as IRAK4 inhibitors for the treatment of inflammatory diseases” (2017).

target: T1, Interleukin-1 receptor-associated kinase 4 (Homo sapiens, UniProt Q9NWZ3); experiment: Biochemical Assay: The biochemical assay is in a AlphaScreen format. The kinase reaction is based on the IRAK-4 phosphorylation of a biotin labeled peptide. The phosphopeptide is incubated with anti-phosphothreonine antibody as well as streptavidin- and protein A-coated beads. Binding of the protein-A coated beads to the antibody and the streptavidin beads to the peptide, leads to an energy transfer from one bead to the other, ultimately producing a luminescent/fluorescent signal.Generally, the kinase reaction is carried out at 1 nM IRAK4, 1.6 μM peptide, 10 μM ATP in reaction buffer 50 mM Hepes, 60 mM NaCl, 5 mM MgCl2, 0.25 mM MnCl2, 2 mM DTT, 0.01% BSA, 0.01% Tween-20) for 3.5 h at RT.
T1 sequence (Q9NWZ3 whole entry): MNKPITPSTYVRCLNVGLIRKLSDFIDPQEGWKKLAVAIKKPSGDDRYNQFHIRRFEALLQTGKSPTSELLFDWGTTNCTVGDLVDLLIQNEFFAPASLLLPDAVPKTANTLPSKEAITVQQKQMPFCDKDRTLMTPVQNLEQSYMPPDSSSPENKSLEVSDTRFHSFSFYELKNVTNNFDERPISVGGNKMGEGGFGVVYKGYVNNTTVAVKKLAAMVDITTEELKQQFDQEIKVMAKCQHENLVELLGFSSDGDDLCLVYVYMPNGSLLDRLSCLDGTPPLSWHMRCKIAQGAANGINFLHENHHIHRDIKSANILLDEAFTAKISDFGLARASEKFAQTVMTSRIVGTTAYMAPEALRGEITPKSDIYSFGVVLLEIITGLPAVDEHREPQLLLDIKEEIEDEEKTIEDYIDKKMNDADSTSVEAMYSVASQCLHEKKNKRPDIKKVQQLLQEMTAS

| SMILES | IC50 [µM] |
| --- | --- |
| Cn1cc2c(n1)C(=O)NCCOCCOc1cc(ccn1)-c1cc(cs1)C(=O)N2 | < 0.1 |
| Cn1cc2c(n1)C(=O)NCCOCCOc1cc(ccn1)-c1cncc(c1)C(=O)N2 | < 10 |
| CC(C)C1NC(=O)c2nn(C3CCOCC3)cc2NC(=O)c2csc(n2)-c2ccnc(c2)CCCNC1=O (stereo not given) | < 10 |
| Cn1cc2c(n1)C(=O)NCCOCCOc1cc(ccn1)-c1cc(ccn1)C(=O)N2 | < 1 |
| O=C1NCCCOC2CCCC(CNc3cc(ccn3)-c3nc1cs3)C2 (stereo not given) | > 10 |
